Data taken from patent US7227023B2, “Quinoline 3-amino chroman derivatives” (Wyeth, priority 2003, dated 2007).
Where a name gives a salt, the structure may show the parent alone.

Experiments:
[1] = target: T1, cloned human 5-HT1A receptors (Homo sapiens, UniProt P08908); test: 35S-GTPγS binding assay, agonist activity at 5-HT1A receptors; assay type: biochemical; details: membranes containing cloned human 5-HT1A receptors; for EC50: read-out: 5-HT1A Function EC50; for Emax / 5-HT1A Function Emax (maximum stimulatory effect): value in parentheses; for Emax: read-out: 5-HT1A Function Emax (maximum stimulatory effect); for 5-HT1A Function Emax (maximum stimulatory effect): in % (unit assumed)
T1 construct: expressed in transfected cells
T1 sequence (P08908 1-422): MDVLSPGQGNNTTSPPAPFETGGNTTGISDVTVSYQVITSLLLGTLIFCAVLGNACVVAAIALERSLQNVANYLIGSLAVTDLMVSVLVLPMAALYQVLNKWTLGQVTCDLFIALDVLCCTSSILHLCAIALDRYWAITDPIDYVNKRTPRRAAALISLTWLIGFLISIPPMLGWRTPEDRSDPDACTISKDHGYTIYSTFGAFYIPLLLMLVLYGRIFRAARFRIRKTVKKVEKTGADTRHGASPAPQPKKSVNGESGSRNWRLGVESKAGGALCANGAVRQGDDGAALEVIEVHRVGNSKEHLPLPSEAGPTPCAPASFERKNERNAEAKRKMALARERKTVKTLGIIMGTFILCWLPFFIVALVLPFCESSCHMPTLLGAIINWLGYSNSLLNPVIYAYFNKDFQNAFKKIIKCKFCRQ
Source text: The agonist activity at 5-HT1A receptors was established by using a ^35S-GTPγS binding assay similar to that used by Lazareno and Birdsall (Br. J. Pharmacol., 1993, 109:1120). The binding assay determines the test compound's ability to affect the binding of ^35S-GTPγS to membranes containing cloned human 5-HT1A receptors. Agonists produce an increase in binding whereas antagonists produce no increase but rather reverse the effects of the standard agonist 8-OH-DPAT. The test compound's maximum stimulatory effect is represented as the Emax, while its potency is defined by the EC50.

[2] = target: T2, 5-HT Transporter (Rattus norvegicus, UniProt P31652); test: 3H-paroxetine displacement, affinity for the serotonin transporter; assay type: binding; details: male rat cortical membranes
T2 construct: ability to displace ^3H-paroxetine from male rat cortical membranes; from tissue; host or cells: male rat cortex (membranes)
T2 sequence (P31652 whole entry): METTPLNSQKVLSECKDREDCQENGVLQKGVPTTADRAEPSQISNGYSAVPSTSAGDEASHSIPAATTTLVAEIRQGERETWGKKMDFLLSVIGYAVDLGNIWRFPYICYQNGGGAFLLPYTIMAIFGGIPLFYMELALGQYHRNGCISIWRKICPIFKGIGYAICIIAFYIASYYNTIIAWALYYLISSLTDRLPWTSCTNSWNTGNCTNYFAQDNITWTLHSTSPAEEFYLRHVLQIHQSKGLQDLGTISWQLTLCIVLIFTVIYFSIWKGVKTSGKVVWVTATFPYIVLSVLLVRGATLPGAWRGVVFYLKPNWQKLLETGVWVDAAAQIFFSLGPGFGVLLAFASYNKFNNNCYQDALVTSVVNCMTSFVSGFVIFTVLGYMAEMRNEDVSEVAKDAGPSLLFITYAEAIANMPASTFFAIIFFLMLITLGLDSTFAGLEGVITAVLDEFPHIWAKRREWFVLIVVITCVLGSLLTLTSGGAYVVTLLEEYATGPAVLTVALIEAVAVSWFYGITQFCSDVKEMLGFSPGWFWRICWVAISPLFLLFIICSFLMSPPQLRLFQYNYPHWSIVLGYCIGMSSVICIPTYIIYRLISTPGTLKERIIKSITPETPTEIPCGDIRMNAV

[3] = target: T3, human 5-HT1A receptors (Homo sapiens, UniProt P08908); test: [3H] 8-OH-DPAT displacement, affinity for the 5-HT1A receptor; assay type: binding; details: CHO cells stably transfected with human 5-HT1A receptors
T3 construct: expressed in transfected cells; host or cells: CHO cells, stably transfected
T3 sequence (P08908 1-422): T1 sequence (P08908 1-422)
Source text: High affinity for the serotonin 5-HT1A receptor was established by testing the claimed compound's ability to displace [^3H] 8-OH-DPAT (dipropylaminotetralin) from the 5-HT1A serotonin receptor following a modification of the procedure of Hall et al. (J. Neurochem., 1985, 44: 1685) which utilizes CHO cells stably transfected with human 5-HT1A receptors.

Row | SMILES | EC50 [1] [nM] | Emax [1] [%] | Ki [2] [nM] | melting point | Ki [3] [nM] | 5-HT1A Function Emax (maximum stimulatory effect) [1]
1 | Fc1ccc2[nH]cc(CCCCNC3COc4c(ccc5ncccc45)C3)c2c1 (stereo not shown) [Compound 9, N-[4-(5-fluoro-1H-indol-3-yl)butyl]-3,4-dihydro-2H-pyrano[2,3-f]quinolin-3-amine] | 5940 | 100 | 1.18 |  |  | 
2 | CCCN(CCCc1c[nH]c2ccc(F)cc12)C1COc2ccc3ncccc3c2C1 (single isomer, unassigned; (-)) (as salt: hydrochloride) [Compound 3, (−)-N-[3-(5-fluoro-1H-indol-3-yl)propyl]-N-propyl-2,3-dihydro-1H-pyran[3,2-f]quinolin-2-amine] |  |  |  | 83.5 °C (dec.) |  | 
3 | Fc1ccc2[nH]cc(CCCNC3COc4c(ccc5ncccc45)C3)c2c1 (stereo not shown) [Compound 7, N-[3-(5-fluoro-1H-indol-3-yl)propyl]-3,4-dihydro-2H-pyrano[2,3-f]quinolin-3-amine] | 1200 | 100 | 2.83 |  | 13.6 | 
4 | Fc1ccc2[nH]cc(CCCNC3COc4c(ccc5ncccc45)C3)c2c1 (stereo not shown) (as salt: hydrochloride) [Compound 7, N-[3-(5-fluoro-1H-indol-3-yl)propyl]-3,4-dihydro-2H-pyrano[2,3-f]quinolin-3-amine] |  |  |  | 300 °C (dec.) |  | 
5 | CCCN(CCCc1c[nH]c2ccc(F)cc12)C1COc2c(ccc3ncccc23)C1 (stereo not shown) [Compound 8, N-[3-(5-fluoro-1H-indol-3-yl)propyl]-N-propyl-3,4-dihydro-2H-pyrano[2,3-f]quinolin-3-amine] | 1710 | 68.3 | 15 |  |  | 
6 | CCCN(CCCCc1c[nH]c2ccc(F)cc12)C1COc2c(ccc3ncccc23)C1 (stereo not shown) [Compound 10, N-[4-(5-fluoro-1H-indol-3-yl)butyl]-N-propyl-3,4-dihydro-2H-pyrano[2,3-f]quinolin-3-amine] |  |  | 12 |  |  | 
7 | CCCN(CCCc1c[nH]c2ccc(F)cc12)C1COc2ccc3ncccc3c2C1 (stereo not shown) [Compound 2, N-[3-(5-fluoro-1H-indol-3-yl)propyl]-N-propyl-2,3-dihydro-1H-pyrano[3,2-f]quinolin-2-amine] | 2220 | 100 | 6.5 |  | 91 | 
8 | Fc1ccc2[nH]cc(CCCNC3COc4ccc5ncccc5c4C3)c2c1 (single isomer, unassigned; (-)) [Compound 1b, (−)-N-[3-(5-fluoro-1H-indol-3-yl)propyl]-2,3-dihydro-1H-pyrano[3,2-f]quinolin-2-amine] | 120 |  |  |  | 314 | 85.87
9 | Fc1ccc2[nH]cc(CCCNC3COc4ccc5ncccc5c4C3)c2c1 (stereo not shown) (as salt: hydrochloride) [Compound 1, N-[3-(5-fluoro-1H-indol-3-yl)propyl]-2,3-dihydro-1H-pyrano[3,2-f]quinolin-2-amine] |  |  |  | > 180 °C |  | 
10 | Fc1ccc2[nH]cc(CCNC3COc4ccc5ncccc5c4C3)c2c1 (stereo not shown) [Compound 5] | 5000 | 30 | 24 |  |  | 
11 | CCCN(CCCc1c[nH]c2ccc(F)cc12)C1COc2ccc3ncccc3c2C1 (single isomer, unassigned; (+)) (as salt: hydrochloride) [Compound 4, (+)-N-[3-(5-fluoro-1H-indol-3-yl)propyl]-N-propyl-2,3-dihydro-1H-pyrano[3,2-f]quinolin-2-amine] |  |  |  | 106 °C (dec.) |  | 
12 | Fc1ccc2[nH]cc(CCCNC3COc4c(ccc5ncccc45)C3)c2c1 (single isomer, unassigned; (+)) [Compound 7a, (+)-N-[3-(5-fluoro-1H-indol-3-yl)propyl]-3,4,-dihydro-2H-pyrano[2,3-f]quinolin-3-amine] | 320 |  | 2.83 |  |  | 74.80
13 | Fc1ccc2[nH]cc(CCCNC3COc4ccc5ncccc5c4C3)c2c1 (single isomer, unassigned; (+)) (as salt: hydrochloride) [Compound 1a, (+)-N-[3-(5-fluoro-1H-indol-3-yl)propyl]-2,3-dihydro-1H-pyrano[3,2-f]quinolin-2-amine] |  |  |  | 330 °C (dec.) |  | 
14 | CCCN(CCCc1c[nH]c2ccc(F)cc12)C1COc2c(ccc3ncccc23)C1 (stereo not shown) (as salt: hydrochloride) [Compound 8, N-[3-(5-fluoro-1H-indol-3-yl)propyl]-N-propyl-3,4-dihydro-2H-pyrano[2,3-f]quinolin-3-amine] |  |  |  | 134 °C (dec.) |  | 
15 | CCCN(CCc1c[nH]c2ccc(F)cc12)C1COc2ccc3ncccc3c2C1 (stereo not shown) (as salt: hydrochloride) [Compound 6, N-[2-(5-fluoro-1H-indol-3-yl)ethyl]-N-propyl-2,3-dihydro-1H-pyrano[3,2-f]quinolin-2-amine] |  |  |  | 67 °C |  | 
16 | CCCN(CCCc1c[nH]c2ccc(F)cc12)C1COc2ccc3ncccc3c2C1 (single isomer, unassigned; (+)) [Compound 4, (+)-N-[3-(5-fluoro-1H-indol-3-yl)propyl]-N-propyl-2,3-dihydro-1H-pyrano[3,2-f]quinolin-2-amine] | 300 |  | 19 |  | 239 | 99.92
17 | CCCN(CCCCc1c[nH]c2ccc(F)cc12)C1COc2c(ccc3ncccc23)C1 (stereo not shown) (as salt: hydrochloride) [Compound 10, N-[4-(5-fluoro-1H-indol-3-yl)butyl]-N-propyl-3,4-dihydro-2H-pyrano[2,3-f]quinolin-3-amine] |  |  |  | 164 °C (dec.) |  | 
18 | CCCN(CCCc1c[nH]c2ccc(F)cc12)C1COc2ccc3ncccc3c2C1 (stereo not shown) (as salt: hydrochloride) [Compound 2, N-[3-(5-fluoro-1H-indol-3-yl)propyl]-N-propyl-2,3-dihydro-1H-pyrano[3,2-f]quinolin-2-amine] |  |  |  | > 148 °C |  | 
19 | Fc1ccc2[nH]cc(CCCNC3COc4c(ccc5ncccc45)C3)c2c1 (single isomer, unassigned; (-)) (as salt: hydrochloride) [Compound 7b, (−)-N-[3-(5-fluoro-1H-indol-3-yl)propyl]-3,4-dihydro-2H-pyrano[2,3-f]quinolin-3-amine] |  |  |  | 250 °C (dec.) |  | 
20 | Fc1ccc2[nH]cc(CCCNC3COc4ccc5ncccc5c4C3)c2c1 (stereo not shown) [Compound 1, N-[3-(5-fluoro-1H-indol-3-yl)propyl]-2,3-dihydro-1H-pyrano[3,2-f]quinolin-2-amine] | 180 | 75.8 |  |  | 62.6 | 
21 | CCCN(CCCc1c[nH]c2ccc(F)cc12)C1COc2ccc3ncccc3c2C1 (single isomer, unassigned; (-)) [Compound 3, (−)-N-[3-(5-fluoro-1H-indol-3-yl)propyl]-N-propyl-2,3-dihydro-1H-pyran[3,2-f]quinolin-2-amine] | 630 |  | 8 |  | 210 | 54.72
22 | Fc1ccc2[nH]cc(CCCCNC3COc4c(ccc5ncccc45)C3)c2c1 (stereo not shown) (as salt: hydrochloride) [Compound 9, N-[4-(5-fluoro-1H-indol-3-yl)butyl]-3,4-dihydro-2H-pyrano[2,3-f]quinolin-3-amine] |  |  |  | 173 °C (dec.) |  | 
23 | Fc1ccc2[nH]cc(CCNC3COc4ccc5ncccc5c4C3)c2c1 (stereo not shown) (as salt: hydrochloride) [Compound 5] |  |  |  | 91 °C (dec.) |  | 
24 | CCCN(CCc1c[nH]c2ccc(F)cc12)C1COc2ccc3ncccc3c2C1 (stereo not shown) [Compound 6, N-[2-(5-fluoro-1H-indol-3-yl)ethyl]-N-propyl-2,3-dihydro-1H-pyrano[3,2-f]quinolin-2-amine] | 190 | 41.3 | 40 |  | 478 | 
25 | Fc1ccc2[nH]cc(CCCNC3COc4ccc5ncccc5c4C3)c2c1 (single isomer, unassigned; (+)) [Compound 1a, (+)-N-[3-(5-fluoro-1H-indol-3-yl)propyl]-2,3-dihydro-1H-pyrano[3,2-f]quinolin-2-amine] | 730 | 100 |  |  | 23.9 | 
26 | Fc1ccc2[nH]cc(CCCNC3COc4c(ccc5ncccc45)C3)c2c1 (single isomer, unassigned; (-)) [Compound 7b, (−)-N-[3-(5-fluoro-1H-indol-3-yl)propyl]-3,4-dihydro-2H-pyrano[2,3-f]quinolin-3-amine] | 170 |  | 4.2 |  | 16.2 | 100
